Experimental data reported in patent publication US20250388575A1, “HETEROBIFUNCTIONAL COMPOUNDS AND METHODS OF TREATING DISEASE” (Halda Therapeutics OpCo, Inc., priority 2022, published 2025).
pIC50, pKd: −log10 of the molar value. Where two headings read alike, the source gives them in different places.

Experiments:
[1] = test system: T-Rex 293 cell line SC3 cells having increased expression of androgen receptor protein; test: Cellular growth inhibition, T-Rex 293 SC3 cells with increased androgen receptor expression (doxycycline), CellTiter-Glo; type: cell-based; conditions: T-Rex 293 SC3 cells with increased androgen receptor expression (exposed to 10 ng/mL doxycycline), 72 hours, CellTiter-Glo; read-out: GI50
In short: (§1)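 SC3, a T-Rex 293 clone with doxycycline-inducible wild-type androgen receptor, was seeded in phenol red-free DMEM with 10% charcoal-dextran FBS, with or without 10 ng/mL doxycycline. Compound added at 24 h (0.5% DMSO) for 72 h at 37° C. CellTiter-Glo 2.0 luminescence; GI50 from four-parameter fit.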

[2] = target: BRD4-BD2 (Homo sapiens (Human), UniProt O60885); test: bromoKdELECT assay for binding affinity to BRD4-BD2; conditions: 11-point 3-fold dilution
Procedure: (§2) Compounds were tested using a bromoKdELECT assay. T7 phage strains displaying bromodomains were grown in parallel in 24-well blocks in an E. coli host derived from the BL21 strain. E. coli were grown to log-phase and infected with T7 phage from a frozen stock (multiplicity of infection=0.4) and incubated with shaking at 32° C. until lysis (90-150 minutes). The lysates were centrifuged (5,000×g) and filtered (0.2 μm) to remove cell debris. Streptavidin-coated magnetic beads were treated with biotinylated small molecule or acetylated peptide ligands for 30 minutes at room temperature to generate affinity resins for bromodomain assays. The liganded beads were blocked with excess biotin and washed with blocking buffer (SeaBlock (Pierce), 1% BSA, 0.05% Tween 20, 1 mM DTT) to remove unbound ligand and to reduce nonspecific phage binding. Binding reactions were assembled by combining bromodomains, liganded affinity beads, and test compounds in 1× binding buffer (17% SeaBlock, 0.33×PBS, 0.04% Tween 20, 0.02% BSA, 0.004% Sodium azide, 7.4 mM DTT). Test compounds were prepared as 1000× stocks in 100% DMSO. Kds were determined using an 11-point 3-fold compound dilution series with one DMSO control point. All compounds for Kd measurements are distributed by acoustic transfer (non-contact dispensing) in 100% DMSO. The compounds were then diluted directly into the assays such that the final concentration of DMSO was 0.09%. All reactions performed in polypropylene 384-well plates. Each was a final volume of 0.02 ml. The assay plates were incubated at room temperature with shaking for 1 hour and the affinity beads were washed with wash buffer (1×PBS, 0.05% Tween 20). The beads were then resuspended in elution buffer (1×PBS, 0.05% Tween 20, 2 μM non-biotinylated affinity ligand) and incubated at room temperature with shaking for 30 minutes. The bromodomain concentration in the eluates was measured by qPCR.

[3] = test system: T-Rex 293 cell line SC3 cells lacking increased expression of androgen receptor protein; test: Cellular growth inhibition, T-Rex 293 SC3 cells lacking increased androgen receptor expression (no doxycycline), CellTiter-Glo; type: cell-based; conditions: T-Rex 293 SC3 cells lacking increased androgen receptor expression (not exposed to doxycycline), 72 hours, CellTiter-Glo; read-out: GI50
In short: as §1

[4] = target: progesterone receptor ligand binding domain (LBD) (Homo sapiens (Human), UniProt P06401); test: FP assay for binding affinity to progesterone receptor (PolarScreen Progesterone Receptor Competitor Assay); conditions: GST-tagged PR LBD, Fluormone tracer, fluorescence polarization, 2 hours at room temperature
Chain of progesterone receptor ligand binding domain (LBD) (P06401 679-913): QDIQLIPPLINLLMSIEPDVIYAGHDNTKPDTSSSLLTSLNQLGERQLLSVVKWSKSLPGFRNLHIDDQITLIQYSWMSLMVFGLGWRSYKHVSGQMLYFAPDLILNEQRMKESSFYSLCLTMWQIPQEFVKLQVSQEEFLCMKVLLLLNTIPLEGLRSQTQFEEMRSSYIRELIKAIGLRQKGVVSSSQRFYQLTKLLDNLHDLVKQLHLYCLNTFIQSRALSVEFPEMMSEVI
Procedure: Compounds were tested using the PolarScreen™ Progesterone Receptor Competitor Assay Kit (Life Technologies Cat #A15905 or a15906), as per the manufacturer's instructions. Briefly, GST-tagged PR LBD, Fluormone tracer, and compound were mixed and incubated for 2 hours at room temperature in the dark. Following incubation, the plates were spun at 3000×g for 30 seconds, then sealed with an optical adhesive cover, and fluorescence polarization was measured using appropriate excitation and emission filters with an EnVision Plate Reader (Perkin Elmer). Compound concentration vs. mP value were plotted in Prism (GraphPad). A four-parameter non-linear regression curve fit was applied to dose-response data to determine the half-maximal inhibitory concentration (IC50) for each test compound.

[5] = target: BRD4-BD1 (Homo sapiens (Human), UniProt O60885); test: bromoKdELECT assay for binding affinity to BRD4-BD1; conditions: 11-point 3-fold dilution
Procedure: as §2

[6] = test system: VCaP cells; test: Cellular growth inhibition assay for VCaP cells, CellTiter-Glo; type: cell-based, human; conditions: VCaP cells, 72 hours, CellTiter-Glo, read-out: GI50
In short: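 GI50 values come from four-parameter curve fits of luminescence data normalized to a zero baseline. Compound, in medium with 0.5% DMSO, was added one day after plating and left for 72 h before CellTiter-Glo 2.0 addition.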

[7] = target: androgen receptor (Homo sapiens, UniProt P10275); test: Assay for binding affinity to androgen receptor ([3H]methyltrienolone radioligand, cell cytosol); conditions: binding to the androgen receptor, 1 nM [3H]methyltrienolone, 24 hr at 4° C.
Chain of androgen receptor (P10275 whole entry, looked up): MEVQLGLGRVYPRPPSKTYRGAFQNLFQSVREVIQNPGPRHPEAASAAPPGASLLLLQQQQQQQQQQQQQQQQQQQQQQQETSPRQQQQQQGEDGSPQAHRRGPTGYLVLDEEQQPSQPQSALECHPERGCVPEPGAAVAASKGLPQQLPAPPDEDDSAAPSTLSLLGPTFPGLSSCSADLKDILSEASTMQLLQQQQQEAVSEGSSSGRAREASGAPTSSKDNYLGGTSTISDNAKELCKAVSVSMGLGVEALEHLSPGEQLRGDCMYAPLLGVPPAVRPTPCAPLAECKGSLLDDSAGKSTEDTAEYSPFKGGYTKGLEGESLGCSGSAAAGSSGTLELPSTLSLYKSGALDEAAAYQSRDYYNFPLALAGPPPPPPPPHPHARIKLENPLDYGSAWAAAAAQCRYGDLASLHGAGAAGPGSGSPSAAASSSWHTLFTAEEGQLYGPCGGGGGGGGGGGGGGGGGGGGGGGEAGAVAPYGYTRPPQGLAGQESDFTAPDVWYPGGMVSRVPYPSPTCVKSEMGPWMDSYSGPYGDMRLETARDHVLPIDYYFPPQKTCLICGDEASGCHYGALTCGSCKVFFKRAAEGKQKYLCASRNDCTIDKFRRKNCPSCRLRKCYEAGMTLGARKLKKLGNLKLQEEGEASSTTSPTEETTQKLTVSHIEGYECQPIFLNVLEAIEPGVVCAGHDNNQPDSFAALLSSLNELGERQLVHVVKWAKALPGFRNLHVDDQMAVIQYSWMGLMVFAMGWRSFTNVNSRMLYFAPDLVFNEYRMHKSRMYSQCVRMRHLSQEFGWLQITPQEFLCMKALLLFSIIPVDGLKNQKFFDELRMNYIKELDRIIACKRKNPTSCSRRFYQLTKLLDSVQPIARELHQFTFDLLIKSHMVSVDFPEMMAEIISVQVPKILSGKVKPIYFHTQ
Procedure: Fractions of cell cytosol (106 cell/point) were incubated for 24 hr at 4° C. with 1 nM [^3H]methyltrienolone in the absence or presence of the test compound in a buffer containing 25 mM Hepes-Tris (pH 7.4), 1 mM EDTA, 10 mM Na2MoO4, 2 mM DTT, 5 µM triamcinolone acetonide, and 10% glycerol. Nonspecific binding was determined in the presence of 1 μM testosterone. Following incubation, the samples were filtered rapidly under vacuum through glass fiber filters (GF/B, Packard) presoaked with 0.3% PEI and rinsed several times with ice-cold 50 mM Tris-HCl using a 96-sample cell harvester (Unifilter, Packard). The filters were dried then counted for radioactivity in a scintillation counter (Topcount, Packard) using a scintillation cocktail (Microscint 0, Packard). The results are expressed as a percent inhibition of the control radioligand specific binding. The standard reference compound is testosterone, which is tested in each experiment at several concentrations to obtain a competition curve from which its IC50 is calculated.

[8] = test system: T47D cells; test: Cellular growth inhibition assay for T47D cells, CellTiter-Glo; type: cell-based, human; conditions: 72 hours treatment, CellTiter-Glo 2.0
In short: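 Cells are plated at 3000/well and allowed 24 h before treatment. Test compound in medium containing 0.5% DMSO is then added, with DMSO-only wells as negative control, and plates are incubated 72 h at 37 °C. ATP luminescence (CellTiter-Glo 2.0) is then fitted to four parameters to derive GI50.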

| pIC50 [4] | GI50 ([8]; Homo sapiens) [nM] | GI50 [8] [nM] | GI50 [6] [nM] | SMILES | GI50 [1] [nM] | pKd [2] | GI50 [3] [nM] | pKd [5] | GI50 ([6]; Homo sapiens) [nM] | pKd [7] |
| --- | --- | --- | --- | --- | --- | --- | --- | --- | --- | --- |
|  |  |  |  | CCS(=O)(=O)Nc1ccc(Oc2cccc(OCCOC3CCN(c4ccc(C(=O)N[C@H]5CC[C@H](Oc6ccc(C#N)c(Cl)c6)CC5)cc4)CC3)c2)c(-c2cn(C)c(=O)c3[nH]ccc23)c1 [I-6, N-[4-(3-chloro-4-cyano-phenoxy)cyclohexyl]-4-[4-[2-[3-[4-(ethylsulfonylamino)-2-(6-methyl-7-oxo-1H-pyrrolo[2,3-c]pyridin-4-yl)phenoxy]phenoxy]ethoxy]-1-piperidyl]benzamide] | < 500 |  | < 500 |  | < 500 | 5.60 to 6.30 |
| 6.30 to 7.30 | < 500 |  |  | Cn1cc(-c2cc(C(C)(C)O)ccc2Oc2cc(F)c(CCOC3CCN(c4ccc(C(=O)N[C@H]5CC[C@H](Oc6ccc(C#N)c(Cl)c6)CC5)nn4)CC3)cc2F)c2cc[nH]c2c1=O [I-107] | < 500 |  | < 500 |  | < 500 |  |
|  |  |  |  | CCS(=O)(=O)Nc1ccc(Oc2cccc(OCCOC3CCN(c4cnc(C(=O)N[C@H]5CC[C@H](Oc6ccc(C#N)c(Cl)c6)CC5)cn4)CC3)c2)c(-c2cn(C)c(=O)c3[nH]ccc23)c1 [I-8, N-[4-(3-chloro-4-cyano-phenoxy)cyclohexyl]-5-[4-[2-[3-[4-(ethylsulfonylamino)-2-(6-methyl-7-oxo-1H-pyrrolo[2,3-c]pyridin-4-yl)phenoxy]phenoxy]ethoxy]-1-piperidyl]pyrazine-2-carboxamide] | < 500 |  | < 500 |  | < 500 | 5.60 to 6.30 |
| 6.30 to 7.30 | 500 to 1500 |  |  | Cn1cc(-c2cc(C(C)(C)O)ccc2Oc2ccc(OCC3CCN(c4ccc(C(=O)NC5CCC(Oc6ccc(C#N)c(Cl)c6)CC5)nn4)CC3)cc2)ccc1=O (centres unmarked) [I-235, N-[4-(3-chloro-4-cyano-phenoxy)cyclohexyl]-6-[4-[[4-[4-(1-hydroxy-1-methyl-ethyl)-2-(1-methyl-6-oxo-3-pyridyl)phenoxy]phenoxy]methyl]-1-piperidyl]pyridazine-3-carboxamide] | < 500 |  | > 3000 |  | < 500 |  |
|  |  |  |  | CCS(=O)(=O)Nc1ccc(Oc2cccc(OCCOC3CCN(c4cnc(C(=O)N[C@H]5CC[C@H](Oc6ccc(C#N)c(Cl)c6)CC5)nc4)CC3)c2)c(-c2cn(C)c(=O)c3[nH]ccc23)c1 [I-10, N-[4-(3-chloro-4-cyano-phenoxy)cyclohexyl]-5-[4-[2-[3-[4-(ethylsulfonylamino)-2-(6-methyl-7-oxo-1H-pyrrolo[2,3-c]pyridin-4-yl)phenoxy]phenoxy]ethoxy]-1-piperidyl]pyrimidine-2-carboxamide] | < 500 |  | > 3000 |  | < 500 | 6.30 to 7.30 |
| 6.30 to 7.30 |  | 500 to 1500 | < 500 | Cn1cc(-c2cc(S(=O)(=O)CCCCCN3CCN(c4ccc(C(=O)N[C@H]5CC[C@H](Oc6ccc(C#N)c(Cl)c6)CC5)nn4)CC3)ccc2Oc2ccc(F)cc2F)c2cc[nH]c2c1=O [I-94] | < 500 |  | > 3000 |  |  |  |
| 6.30 to 7.30 |  | 500 to 1500 | > 3000 | CC(C)N(C1CCN(c2ccc(C(=O)N[C@H]3CC[C@H](Oc4ccc(C#N)c(Cl)c4)CC3)nn2)CC1)C1CN(c2cccc(Oc3ccc(C(C)(C)O)cc3-c3cn(C)c(=O)c4[nH]ccc34)c2F)C1 [I-141] | < 500 |  | 500 to 1500 |  |  |  |

| SMILES | pIC50 [4] | GI50 ([8]; Homo sapiens) [nM] | GI50 [8] [nM] | GI50 [6] [nM] | GI50 [1] [nM] | pKd [2] | GI50 [3] [nM] | pKd [5] | GI50 ([6]; Homo sapiens) [nM] | pKd [7] |
| --- | --- | --- | --- | --- | --- | --- | --- | --- | --- | --- |
| Cn1cc(-c2cc(S(=O)(=O)CCCCOC3CCN(c4ccc(C(=O)NC5CCC(Oc6ccc(C#N)c(Cl)c6)CC5)nn4)CC3)ccc2Oc2ccc(F)cc2F)c2cc[nH]c2c1=O (centres unmarked) [I-92, N-[4-(3-chloro-4-cyano-phenoxy)cyclohexyl]-6-[4-[4-[4-(2,4-difluorophenoxy)-3-(6-methyl-7-oxo-1H-pyrrolo[2,3-c]pyridin-4-yl)phenyl]sulfonylbutoxy]-1-piperidyl]pyridazine-3-carboxamide] | 6.30 to 7.30 |  |  |  | < 500 | < 5.60 | > 3000 | < 5.60 | > 3000 |  |
